According to patent publication US20230220047A1, “PEPTIDES FOR TREATMENT OF SEPSIS AND CANCER” (NORWEGIAN UNIVERSITY OF SCIENCE AND TECHNOLOGY (NTNU), priority 2020, published 2023):

Columns and labels:
TLR4 [1] = assay: ELISA/Bioplex of LPS-mediated cytokine secretion by THP-1 cells; format: cell-based, human; conditions: 15 μM, 30 min pre-treatment, LPS 100 ng/ml 5 h; relative to P7-Pen
Experimental: (A) Results of LDH assay and ELISAs analysing cytokine secretion after 5 h of stimulation with LPS (graphs show mean values for at least 3 biological replicates). […] In the tables average values are presented based on 3-5 biological replicates for each experiment. […]
TNF in supernatants was detected using a human TNF-alpha DuoSet ELISA (DY210) (R&D Systems); CXCL10 using a DuoSet ELISA (DY266) (R&D Systems); IL-1β using a BD OptEiA human IL-1β ELISA SetII (#557953, BD Biosciences): IFNβ using a VeriKine-HS™ Human Interferon-Beta Serum ELISA Kit (#41415) from PBL Assay Science. Some supernatants were also analysed by multiplex cytokine assay (Bio-Plex; Bio-Rad Laboratories Inc.) for IL-1β, IL-6, IL-8, CXCL10/IP-10. Results are presented as mean and SD for biological replicates for a representative donor (primary human macrophages), or at least three independent experiments for the model cell line THP-1. Statistical significance was evaluated in GraphPad Prizm 5.03. Data distribution was assumed to be normal but this was not formally tested. The difference between the two groups was determined by two-tailed t test.

[2] = test system: ANBL-6 multiple myeloma cells; assay: CellTiter-Glo cell viability assay, ANBL-6; format: cell-based; conditions: for effect on proliferation of ANBL-6 cells: 15 μM; for anti-proliferative activity over a concentration series: 5, 10, 12.5, 15, 20 and 30 μM or 5, 10 and 20 μM, 48 h
Experimental: Minor effects on the proliferation of the IH-1 and RPMI 8226 cell lines are seen. Cells were seeded at the level shown (left-hand bar of each set) then incubated in medium containing water, 10 μM penetratin or 10 μM P7-A4-Pen for 48 hr (except for INA-6 cells, which were incubated with 12.5 μM penetratin or 12.5 μM P7-A4-Pen). The number of viable cells was detected based on quantitation of ATP by luminescent signal in correlation to a standard curve prepared for each cell line. Results are based on 3-5 biological replicates for each condition, error bars show standard deviation of mean.
Cells were seeded and then incubated in growth medium alone or supplemented with water, DMSO, 15 μM penetratin or 15 μM investigational peptide. The growth medium only and H2O—, DMSO- and penetratin-supplemented cultures constituted controls.
The solid horizontal lines show the amount of cells originally seeded. In (A) ANBL-6 cells were seeded at a level of 10,000 cells/well, then incubated in medium supplemented with water, the control peptide C3A-Pen, P7-Pen, P7-A4-Pen, P7-N4-Pen or P7-K2-Pen for 48 hours. The peptides were included at concentrations of 5, 10, 12.5, 15, 20 or 30 μM. Cells were counted at 48 hours. In (B), ANBL-6 cells were seeded at a level of 5000 cells/well, then incubated in medium supplemented with water, P6-Pen, P-P6-Pen, P7-D4-Pen or P7-A4-Pen for 48 hours. Peptides were included at concentrations of 5, 10 or 20 μM. Cells were counted at 48 hours. […] Results are based on 3 biological replicates, error bars show standard deviation of mean.
Multiple myeloma cells JJN-3 (DSMZ (Germany) no. ACC 541), ANBL-6 (Cellosaurus accession number CVCL_5425, obtained from Dr Diane Jelinek, Mayo Clinic, Rochester, Minn.), INA-6 (Cellosaurus accession number CVCL_5209, obtained from Dr M. Gramatzki, University of Erlangen-Nurnberg, Erlangen, Germany), RPMI-8226 (ATCC CCL-155), and IH-1 (Cellosaurus accession number CVCL_WZ44, established from the pleural effusion of a myeloma patient by Myeloma research group, IKOM, NTNU, Trondheim, Norway) were grown in RPMI-1640 (Sigma-Aldrich Norway, Oslo, Norway) supplemented with 100 nM penicillin/streptomycin and 10% FCS, and for ANBL-6, IH-1 and INA-6 cells 2 ng/ml recombinant IL-6 (Gibco, Thermo Fisher Scientific, Waltham, Mass., USA). Murine multiple myeloma Vk*MYC cells were obtained from M.D. Leif Bergsagel (Mayo Clinic, Richester, Minn., USA) and cultured in RPMI-1640 supplemented with 2% human serum (B^+, The blood bank, St Olav's Hospital, Trondheim, Norway), 100 nM penicillin/streptomycin, L-Glutamine (2 mM) and recombinant IL-6 (1 ng/ml). HEK293T (ATCC CRL-3216) were cultured in DMEM with 10% FCS. THP-1 TRAM knockout (KO) and TLR4 KO cell lines, and matching lentivirally transduced control cell lines, were differentiated in the same way as wild type (WT) THP-1. TRAM KO THP-1 cell line is described in Yurchenko et al. (supra).
To evaluate the potential impact of the P7 peptide on proliferation of tumour cells of lymphoid origin, we performed a CellTiter-Glo Luminescent Cell Viability Assay to address proliferation of several multiple myeloma (MM) cell lines. For the assay, cells were incubated for 48 h in respective media containing either solvent (water), 10 μM control peptide (Pen) or the SLAMF1-derived peptide P7-A4-Pen for 48 h (FIG. 32) (with the exception of the INA-6 cells which were incubated with 12.5 μM control peptide or P7-A4-Pen). […] This effect could be mediated by P7-A4-Pen-induced inhibition of signalling pathways that are crucial for driving proliferation and/or survival of MM tumour cells.

THP-1 cells = assay: LDH cytotoxicity assay in THP-1 cells; conditions: CPP screen, 15 μM, 30 min pre-treatment, LPS 100 ng/ml
Experimental: For every assay, separate wells were seeded for the required controls (Spontaneous LDH Release Controls and Maximum LDH Release Control) with the same amount of cells as used for peptide treatments. All supernatants were analysed in triplicate with the average value of technical replicates taken into calculations.
THP-1 cells were pre-treated with increasing concentrations of P7-Arg11 and control peptide Arg11 for 1 h (FIG. 3).

TLR4 [3] = assay: Western blot of LPS signalling in THP-1 cells and primary human monocytes; format: cell-based; conditions: data not shown
Experimental: Protein pellets were dissolved by heating protein pellets for 10 min at 95° C. in buffer containing 4 M urea, 1 SDS (Sigma) and NuPAGE® LDS Sample Buffer (4×) (Thermo Fisher Scientific). Otherwise, lysates were made using 1× RIPA lysis buffer (150 mM NaCl, 50 mM TrisHCl (pH 7.5), 1% Triton X100, 5 mM EDTA, protease inhibitors, phosphatase inhibitors). For Western blot analysis we used pre-cast protein gels NuPAGE™ Novex™ and iBlot Transfer Stacks iBlot Gel Transfer Device (Thermo Fisher Scientific). Proteins were transferred to the membrane by dry-blotting using iBlot® 2 NC Regular/Mini Stacks (Life Technologies) in the iBlot 2 Dry Blotting System (Life Technologies). After secondary antibody incubation, membranes were washed and incubated with HRP substrate solution (SuperSignal™ West Femto Maximum Sensitivity Substrate (Thermo Fisher Scientific)). Images were taken using Odyssey® Fc (LI-CORE). Quantification graphs were generated by the analysis of signal intensities for protein bands (protein of interest and endogenous loading control—β-tubulin from the same membrane) using Odyssey software (LI-CORE). Data were normalised to the expression levels of β-tubulin and presented as a relative fold change to the control sample.
Further, we tested the effect of P7-Pen on phosphorylation of p38 MAPK, IκBα degradation and modification of IRAK1 in human macrophages (THP-1 cells) and primary human monocytes. P7-Pen inhibited LPS-mediated phosphorylation of p38 MAPK (FIG. 24A) and inhibited IRAK1 ubiquitination/phosphorylation (visualised as band shift to higher molecular weight) in primary monocytes (FIG. 24B).

TLR4 [4] = assay: qPCR of LPS-mediated cytokine mRNA expression in THP-1 macrophages; format: cell-based, human; conditions: control/decoy peptide (data not shown)
Experimental: SW480 (ATCC CCL-228) and Jurkat (ATCC Clone E6-1; TIB-152) cells were cultured in RPMI 1640 (Sigma-Aldrich, Schnelldorf, Germany) supplemented with 10% heat-inactivated FCS, penicillin/streptomycin (Life Technologies) and 20 mM L-Glutamine. THP-1 cells (ATCC TIB-202) were cultured in RPMI-1640 (high-glucose, ATCC) supplemented with 10% heat inactivated foetal calf serum (FCS), 100 nM penicillin/streptomycin and 5 μM β-mercaptoethanol (Sigma). THP-1 cells were differentiated with 60 ng/ml phorbol 12-myristate 13-acetate (PMA, Sigma) for 72 h, followed by 24 or 48 h in medium without PMA.
Total RNA was isolated from the cells using Qiazol reagent #79306 from QIAGEN, and chloroform extraction followed by purification on RNeasy Mini columns with DNAse digestion (Qiagen). cDNA was prepared using the Maxima First Strand cDNA Synthesis Kit for quantitative real-time polymerase chain reaction (RT-qPCR) (Thermo Fisher Scientific) according to the manufacturer's protocol. qPCR was performed using the PerfeCTa qPCR FastMix (Quanta Biosciences) in replicates and cycled in a StepOnePlus™ Real-Time PCR cycler. The following TaqMan® Gene Expression Assays (Applied Biosystems®) were used: IFNβ (Hs01077958_s1), TNF (Hs00174128_m1), TBP (Hs00427620_m1), CXCL10 (Hs01124251_g1), IL-6 (Hs00174131_m1) and IL-1β (Hs01555410_m1), for human cells; Ifnβ (Mm00439552_s1), Tnf (Mm00443258_m1), Tbp (Mm01277042_m1) and II-1β (Mm00434228_m1), for mouse cells. No RT controls were negative. The level of TBP mRNA was used for normalisation and results presented as relative expression compared to the control untreated sample. Relative expression was calculated using Pfaffl's mathematical model (Pfaffl, Nucleic Acids Research 29(9): e45, 2001). Results are presented as the mean and SD expression fold change for biological replicates relative to non-stimulated cells. Statistical significance was evaluated in GraphPad Prizm 5.03. Data distribution was assumed to be normal but this was not formally tested. The difference between the two groups was determined by two-tailed t test.

## ATVYASVTLTGRQIKIWFQNRRMKWKK (P7-A1-Pen) [Peptide P7-A1-Pen]
TLR4 [1]
  inhibitory activity towards LPS-induced CXCL10, TNF and IL-1β secretion (ELISA): totally abrogated activity

## Ac-IKVYASVTLTGRQIKIWFQNRRMKWKK-NH2 [Peptide P7-K2-Pen]
[2]
  effect on proliferation of ANBL-6 cells: anti-proliferative effect
  anti-proliferative activity over a concentration series: clear concentration-dependent effect

## Ac-ITVDASVTLTGRQIKIWFQNRRMKWKK-NH2 [Peptide P7-D4-Pen]
[2]
  effect on proliferation of ANBL-6 cells: anti-proliferative effect
  anti-proliferative activity over a concentration series: clear concentration-dependent effect

## Ac-ITVYASVTLDGRQIKIWFQNRRMKWKK-NH2 [Peptide P7-D10-Pen]
TLR4 [1]
  inhibitory activity towards LPS-induced CXCL10, TNF and IL-1β secretion (ELISA): high levels of activity

## Ac-ITVYASVTLGGRQIKIWFQNRRMKWKK-NH2 [Peptide P7-G10-Pen]
TLR4 [1]
  inhibitory activity towards LPS-induced CXCL10, TNF and IL-1β secretion (ELISA): high levels of activity

## Ac-ITVYASVTLTGRRRRRRR-NH2 [Peptide P7-Arg7, ITVYASVTLTGRRRRRRR]
THP-1 cells
  reduction of LPS-mediated toxicity (LDH assay): some decrease

## Ac-ITVYASVTLTGRRRRRRRRR-NH2 [Peptide P7-Arg9]
THP-1 cells
  reduction of LPS-mediated toxicity (LDH assay): some decrease

## Ac-RRRRRRRRRRRGITVYASVTLT-NH2 [Arg11-P7]
THP-1 cells
  reduction of LPS-mediated toxicity (LDH assay): some decrease

## IATYASTALTGRQIKIWFQNRRMKWKK (Ac-IATYASTALTGRQIKIWFQNRRMKWKK-NH2) [Peptide P7C3-Pen, control peptide]
TLR4 [3]
  pattern of inhibition of p38 MAPK phosphorylation and IRAK1 modification as seen with P7-Pen: not

## IATYASTALTGRRRRRRRRRRR (Ac-IATYASTALTGRRRRRRRRRRR-NH2) [Peptide P7C3-Arg11, control/decoy peptide]
TLR4 [4]
  LPS- or E. coli particle-induced expression of IFNβ, CXCL10 and TNF: no effect

## IATYASVTLTGRQIKIWFQNRRMKWKK (Ac-IATYASVTLTGRQIKIWFQNRRMKWKK-NH2) [Peptide P7C3A-Pen, control peptide]
[2]
  anti-proliferative activity over a concentration series: essentially no anti-proliferative effect

## ITLYASVTLTGRQIKIWFQNRRMKWKK (Ac-ITLYASVTLTGRQIKIWFQNRRMKWKK-NH2) [Peptide P7-L3-Pen]
TLR4 [1]
  inhibitory activity towards LPS-induced CXCL10, TNF and IL-1β secretion (ELISA): only partially decreased

## ITVSASVTLTGRQIKIWFQNRRMKWKK (Ac-ITVSASVTLTGRQIKIWFQNRRMKWKK-NH2) [Peptide P7-S4-Pen]
[2]
  effect on proliferation of ANBL-6 cells: anti-proliferative effect

## ITVYASVTATGRQIKIWFQNRRMKWKK (P7-A9-Pen) [Peptide P7-A9-Pen]
TLR4 [3]
  pattern of inhibition of p38 MAPK phosphorylation and IRAK1 modification as seen with P7-Pen: inactive

## ITVYASVTLPAGRQIKIWFQNRRMKWKK (P10-A11-Pen) [P10-Ala11-Pen]
TLR4 [1]
  inhibitory activity towards LPS-induced CXCL10, TNF and IL-1β secretion (ELISA): totally abrogated

## ITVYASVTLPEGRQIKIWFQNRRMKWKK (Ac-ITVYASVTLPEGRQIKIWFQNRRMKWKK-NH2) [Peptide P10-Pen]
TLR4 [1]
  inhibitory activity towards LPS-induced CXCL10, TNF and IL-1β secretion (ELISA): totally abrogated

## ITVYASVTLTAGRQIKIWFQNRRMKWKK (P11-A11-Pen) [P11-Ala11-Pen]
TLR4 [1]
  inhibitory activity towards LPS-induced CXCL10, TNF and IL-1β secretion (ELISA): totally abrogated

## ITVYASVTLTEGRQIKIWFQNRRMKWKK (P11-Pen) [Peptide P11-Pen]
TLR4 [1]
  inhibitory activity towards LPS-induced CXCL10, TNF and IL-1β secretion (ELISA): totally abrogated

## NSITVYASVTLTGRQIKIWFQNRRMKWKK (P3sh2-Pen) [Peptide P3sh2-Pen]
TLR4 [1]
  inhibitory activity towards LPS-induced CXCL10, TNF and IL-1β secretion (ELISA): did not cause loss of inhibitory activity

## TNSITVYASVTLTGRQIKIWFQNRRMKWKK (P3sh1-Pen) [Peptide P3sh1-Pen]
TLR4 [1]
  inhibitory activity towards LPS-induced CXCL10, TNF and IL-1β secretion (ELISA): did not cause loss of inhibitory activity
